Results taken from article PMC7079008, “Compactness of Protein Folds Alters Disulfide‐Bond Reducibility by Three Orders of Magnitude: A Comprehensive Kinetic Case Study on the Reduction of Differently Sized Tryptophan Cage Model Proteins” (Chembiochem, 2019).

Assay: TCEP stability in phosphate buffer by 31P NMR
Format: physicochemical
Settings: 50 mM phosphate buffer, room temperature, over 14 days
Experimental: Due to the acidic nature of TCEP, to avoid any pH shift, a phosphate buffer (50 mM, pH 7) was used to sustain near‐physiological pH. The groups of Han39 and Whitesides37 described the chemical instability of TCEP above pH 7 in 300–400 mM phosphate buffer.
NMR spectroscopy: All ^1H NMR spectroscopy experiments were performed on a Bruker Avance III 700 MHz spectrometer equipped with a z‐gradient 5 mm probe head operating at 700.13 MHz for ^1H, whereas ^31P NMR spectroscopy experiments were performed on a Bruker Avance 250 spectrometer with a 5 mm SB quad probe head.

SMILES: O=C(O)CCP(CCC(=O)O)CCC(=O)O [TCEP, tris(2‐carboxyethyl)phosphine]
- TCEP oxidation or degradation: no significant spectral changes
